Data as given in US20220298138A1, “ENZYME INHIBITORS” (KALVISTA PHARMACEUTICALS LIMITED, priority 2019, published 2022).

Molecular target: T1, Human Factor XIIa (Homo sapiens, UniProt P00748)
T1 construct: purchased Enzyme Research Laboratories
T1 sequence (P00748 373-615 limits assumed): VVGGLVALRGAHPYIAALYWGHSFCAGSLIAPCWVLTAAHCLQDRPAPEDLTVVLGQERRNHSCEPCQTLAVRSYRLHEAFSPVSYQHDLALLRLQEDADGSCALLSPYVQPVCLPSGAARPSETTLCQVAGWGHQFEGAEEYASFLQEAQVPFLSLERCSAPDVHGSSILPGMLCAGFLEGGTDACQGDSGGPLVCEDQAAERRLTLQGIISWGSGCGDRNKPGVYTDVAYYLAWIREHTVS
Assay: Factor XIIa inhibitory activity in vitro (fluorogenic substrate H-DPro-Phe-Arg-AFC)
Format: biochemical
Details: 25° C., class symbols, read-out: Human FXIIa IC50
Description: Determination of the % Inhibition for FXIIa
Human Factor XIIa (Enzyme Research Laboratories) was incubated at 25° C. with the fluorogenic substrate H-DPro-Phe-Arg-AFC and various concentrations of the test compound. Residual enzyme activity (initial rate of reaction) was determined by measuring the change in […] at 410 nm and the IC50 value for the test compound was determined.

Row | SMILES | IC50 [µM]
1 | Cc1cc(C)c(C(=O)N[C@@H](Cc2ccc(F)c(F)c2)C(=O)NCc2ccc3c(N)nccc3c2)[nH]1 [Example 0.01] | 3 to 10
2 | CC(C)N1CCCC[C@@H]1C(=O)N[C@@H](Cc1ccc(F)c(F)c1)C(=O)NCc1ccc2c(N)nccc2c1 [Example 0.02] | 0.1 to 0.279
3 | Cn1cc(C(=O)N[C@@H](Cc2ccc(F)c(F)c2)C(=O)NCc2ccc3c(N)nccc3c2)cn1 [Example 0.03] | 10 to 40
4 | Nc1nccc2cc(CNC(=O)[C@H](Cc3ccc(F)c(F)c3)NC(=O)c3ccccc3N3CCOCC3)ccc12 [Example 0.04] | 10 to 40
5 | CC(C)n1cc(C(=O)N[C@@H](Cc2ccc(F)c(F)c2)C(=O)NCc2ccc3c(N)nccc3c2)cn1 [Example 0.07] | 10 to 40
6 | CN1CCN(c2cccc(C(=O)N[C@@H](Cc3ccc(F)c(F)c3)C(=O)NCc3ccc4c(N)nccc4c3)c2)CC1 [Example 0.08] | 3 to 10
7 | Nc1nccc2cc(CNC(=O)[C@H](Cc3ccc(F)c(F)c3)NC(=O)c3cccc(-n4ccnc4)c3)ccc12 [Example 0.09] | 3 to 10
8 | Nc1nccc2cc(CNC(=O)[C@H](Cc3ccc(F)c(F)c3)NC(=O)c3ccc(-n4ccnc4)nc3)ccc12 [Example 0.10] | 10 to 40
9 | COc1cncc(C(=O)N[C@@H](Cc2ccc(F)c(F)c2)C(=O)NCc2ccc3c(N)nccc3c2)c1 [Example 0.12] | 3 to 10
10 | Cc1cc(C(=O)N[C@@H](Cc2ccc(F)c(F)c2)C(=O)NCc2ccc3c(N)nccc3c2)n[nH]1 [Example 0.14] | 3 to 10
11 | Nc1nccc2cc(CNC(=O)[C@H](Cc3ccc(F)c(F)c3)NC(=O)c3cccnn3)ccc12 [Example 0.15] | 3 to 10
12 | Nc1nccc2cc(CNC(=O)[C@H](Cc3ccc(F)c(F)c3)NC(=O)c3ccnnc3)ccc12 [Example 0.16] | 3 to 10
13 | Cn1ccc(C(=O)N[C@@H](Cc2ccc(F)c(F)c2)C(=O)NCc2ccc3c(N)nccc3c2)n1 [Example 0.17] | 10 to 40
14 | Nc1nccc2cc(CNC(=O)[C@H](Cc3ccc(F)c(F)c3)NC(=O)c3ncccn3)ccc12 [Example 0.18] | 10 to 40
15 | CN(C)[C@H](CCc1ccccc1)C(=O)N[C@@H](Cc1ccc(F)c(F)c1)C(=O)NCc1ccc2c(N)nccc2c1 [Example 0.19] | 10 to 40
16 | Cc1nocc1C(=O)N[C@@H](Cc1ccc(F)c(F)c1)C(=O)NCc1ccc2c(N)nccc2c1 [Example 0.21] | 3 to 10
17 | Cc1cnc(C(=O)N[C@@H](Cc2ccc(F)c(F)c2)C(=O)NCc2ccc3c(N)nccc3c2)cn1 [Example 0.22] | 3 to 10
18 | N#Cc1cccc(C(=O)N[C@@H](Cc2ccc(F)c(F)c2)C(=O)NCc2ccc3c(N)nccc3c2)c1 [Example 0.25] | 3 to 10
19 | Nc1nccc2cc(CNC(=O)[C@H](Cc3ccc(F)c(F)c3)NC(=O)c3ccc(-c4cncnc4)cc3)ccc12 [Example 0.27] | 10 to 40

Further lines, results first:

Row | IC50 [µM] | SMILES
20 | 3 to 10 | Nc1nccc2cc(CNC(=O)[C@H](Cc3ccc(F)c(F)c3)NC(=O)c3cccc(-n4cccn4)c3)ccc12 [Example 0.05]
21 | 10 to 40 | Cc1nc(C(=O)N[C@@H](Cc2ccc(F)c(F)c2)C(=O)NCc2ccc3c(N)nccc3c2)c(C)o1 [Example 0.06]
22 | 10 to 40 | N#Cc1ccc(C(=O)N[C@@H](Cc2ccc(F)c(F)c2)C(=O)NCc2ccc3c(N)nccc3c2)nc1 [Example 0.11]
23 | 3 to 10 | Nc1nccc2cc(CNC(=O)[C@H](Cc3ccc(F)c(F)c3)NC(=O)c3ccc[nH]c3=O)ccc12 [Example 0.13]
24 | 3 to 10 | Nc1nccc2cc(CNC(=O)[C@H](Cc3ccc(F)c(F)c3)NC(=O)c3cncnc3)ccc12 [Example 0.20]
25 | 10 to 40 | Nc1nccc2cc(CNC(=O)[C@H](Cc3ccc(F)c(F)c3)NC(=O)c3cccnc3)ccc12 [Example 0.23]
26 | 10 to 40 | Nc1nccc2cc(CNC(=O)[C@H](Cc3ccc(F)c(F)c3)NC(=O)CCCOCc3ccccc3)ccc12 [Example 0.24]
27 | 10 to 40 | Cc1nc2ccncc2cc1C(=O)N[C@@H](Cc1ccc(F)c(F)c1)C(=O)NCc1ccc2c(N)nccc2c1 [Example 0.26]
28 | 10 to 40 | Nc1nccc2cc(CNC(=O)[C@H](Cc3ccc(F)c(F)c3)NC(=O)c3ccc4cnccc4c3)ccc12 [Example 0.28]
